Measured values taken from patent publication US12161650B2, “Pharmaceutical compositions comprising a ryanodine receptor modulator and uses thereof” (priority 2021, dated 2024).
Several values for one entry are separate records, joined by “and”; a condition that tells them apart may be missing. Equal entries are not always repeated. Where two headings read alike, the source gives them in different places.

Experiment: Phase 1b study in RYR1-Related Myopathy patients, plasma pharmacokinetics
Assay type: in vivo, human (RYR1-Related Myopathy patients)
Description: A Phase 1b study is performed in RYR1-Related Myopathy (RYR1-RM) affected individuals. Compound I was administered in a gastro-resistant tablet according to Example 3 at daily doses. The formulation comprised 20 mg Compound I (based on the mass of 4-[(7-methoxy-2,3-dihydro-1,4-benzothiazepin-4(5H)yl)methyl]benzoic acid). The first three participants were dosed with 120 mg of Compound I (6×20 mg tablets) daily for approximately 28 days. The second group was dosed with 200 mg of Compound I (10×20 mg tablets daily for approximately 28 days. Bloods for PK assessments were at baseline (Day 0, 24h PK), at the study mid-point (day 14±2 days, trough PK), and at the final study visit (day 28, 24h PK). Pharmacokinetic analysis was performed on plasma samples. PK parameters are set forth below: [table]

[1] = human, plasma, po, 200 mg, 200 mg oral daily for 28 days, three subjects
[2] = human, plasma, po, 200 mg, single oral 200 mg, three subjects
[3] = single oral 120 mg, Day 1, three subjects, Max
[4] = single oral 120 mg, Day 1, three subjects, Median
[5] = single oral 120 mg, Day 1, three subjects, Min
[6] = single oral 120 mg, Day 1, three subjects, arithmetic mean
[7] = single oral 120 mg, Day 1, three subjects, geometric mean

Cmax (human, plasma, po, 120 mg, single oral 120 mg, Day 1, three subjects, arithmetic mean, read-out: Cmax): 13300 ng/mL | Tmax (human, plasma, po, 120 mg, single oral 120 mg, Day 1, three subjects, arithmetic mean, read-out: Tmax): 3 h | half-life (human, plasma, po, 120 mg, single oral 120 mg, Day 1, three subjects, arithmetic mean, read-out: t½ (converted)): 14.1 h | AUC(0-t) (human, plasma, po, 120 mg, single oral 120 mg, Day 1, three subjects, geometric mean, read-out: AUC0-24): 171 µg·h/mL | AUC(0-inf) (human, plasma, po, 120 mg, single oral 120 mg, Day 1, three subjects, geometric mean, read-out: AUC0-inf): 257 µg·h/mL | AUC(0-t) (human, plasma, po, 120 mg, single oral 120 mg, Day 1, three subjects, geometric mean, read-out: AUC0-t): 171 µg·h/mL | Cmax (human, plasma, po, 120 mg, single oral 120 mg, Day 1, three subjects, geometric mean, read-out: Cmax): ~13100 ng/mL | Tmax (human, plasma, po, 120 mg, single oral 120 mg, Day 1, three subjects, geometric mean, read-out: Tmax): 3 h | half-life (human, plasma, po, 120 mg, single oral 120 mg, Day 1, three subjects, geometric mean, read-out: t½ (converted)): 14.1 h | AUC(0-inf) (human, plasma, po, 120 mg, single oral 120 mg, Day 1, read-out: AUC0-inf, individual values): 212 to 290 µg·h/mL | AUC(0-t) (human, plasma, po, 120 mg, single oral 120 mg, Day 1, read-out: AUC0-t, individual values): 150 to 190 µg·h/mL | Cmax (human, plasma, po, 120 mg, single oral 120 mg, Day 1, read-out: Cmax, individual values): 11100 to 16300 ng/mL | Tmax (human, plasma, po, 120 mg, single oral 120 mg, Day 1, read-out: TMax, all participants): 3 h | half-life (human, plasma, po, 120 mg, single oral 120 mg, Day 1, read-out: half-life, individual values (converted)): 12.8 h | concentration at 0 h [1]: 7450 ng/mL | concentration at 0.5 h [1]: 8190 ng/mL | concentration at 1 h [1]: 7900 ng/mL | concentration at 2 hr (human, plasma, po, 200 mg, 200 mg oral daily for 28 days, three subjects, time 2 hr): 8830 ng/mL | concentration at 3 h [1]: 13500 ng/mL | concentration at 4 h [1]: 15100 ng/mL | concentration at 5 h [1]: 17800 ng/mL | concentration at 6 h [1]: 20000 ng/mL | concentration at 8 h [1]: 18300 ng/mL | concentration at 12 h [1]: 15400 ng/mL | concentration at 24 h [1]: 8550 ng/mL | Tmax (human, plasma, po, 200 mg, 200 mg oral daily for 28 days, read-out: Tmax, all participants): 5 to 6 h | concentration at 0 h [2]: 0 ng/mL | concentration at 0.5 h [2]: 0 ng/mL | concentration at 1 h [2]: 0 ng/mL | concentration at 2 h (human, plasma, po, 200 mg, single oral 200 mg, three subjects, time 2 hr): 176 ng/mL | concentration at 3 h [2]: 1110 ng/mL | concentration at 4 h [2]: 14300 ng/mL | concentration at 5 h [2]: 17600 ng/mL | concentration at 6 h [2]: 15900 ng/mL | concentration at 8 h [2]: 13400 ng/mL | concentration at 12 h [2]: 10000 ng/mL | concentration at 24 h [2]: 5520 ng/mL | Tmax (human, plasma, po, 200 mg, single oral 200 mg, read-out: TMax, all participants): 5 to 6 h | half-life, individual values (single oral 120 mg, Day 1): 15.28 h and 14.40 h | AUC0-24 [3]: 190 µg·h/mL | AUC % extrap [3]: 36.4% | AUC(0-inf) [3]: 290 µg·h/mL | AUC(0-t) [3]: 190 µg·h/mL | Cmax [3]: 16300 ng/mL | Kel [3]: 0.0544 h⁻¹ | Tlag [3]: 0.50 h | t½ [3]: 15.28 h | AUC % extrap [4]: 34.33% | Kel [4]: 0.04813 h⁻¹ | Tlag [4]: 0.000 h | AUC0-24 [5]: 150 µg·h/mL | AUC % extrap [5]: 29.4% | AUC(0-inf) [5]: 212 µg·h/mL | AUC(0-t) [5]: 150 µg·h/mL | Cmax [5]: 11100 ng/mL | Kel [5]: 0.0454 h⁻¹ | Tlag [5]: 0.00 h | t½ [5]: 12.75 h | AUC % extrap [6]: 33.36% | Kel [6]: 0.04929 h⁻¹ | Tlag [6]: 0.167 h | t½ [6]: 14.142 h | AUC % extrap [7]: 33.23% | AUC(0-inf) [7]: 256.6 µg·h/mL | AUC(0-t) [7]: 170.8 µg·h/mL | Kel [7]: 0.04915 h⁻¹
SMILES: COc1ccc2c(c1)CN(Cc1ccc(C(=O)O)cc1)CCS2.O=C(O)/C=C/C(=O)O [Compound I, 4-[(7-methoxy-2,3-dihydro-1,4-benzothiazepin-4(5H)yl)methyl]benzoic acid hemifumarate]
